Assay results taken from US4605744A, “Imidazole derivatives” (Hoffmann-La Roche Inc., priority 1985, dated 1986).
Counter-ions that a name gives are not always drawn. Like-named read-outs stand apart in the source and are kept apart here.

What was measured:
Test in all cases: In vitro antibacterial activity (MIC)
Type in all cases: cell-based
S. marcescens S1 = test system: S. marcescens S1
In short: (§1)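 Read-out: visible growth, checked with a viewer after overnight incubation at 37° C. Bacteria, from a 10^-2 dilution of an overnight culture, were exposed to drug at 128 to 0.008 μg/ml in Mueller-Hinton broth.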

P. aeruginosa B = test system: P. aeruginosa B
In short: as §1

S. pyogenes 503-782 = details: S. pyogenes 503-782
In short: as §1

S. faecalis C1 = details: S. faecalis C1
In short: as §1

P. aeruginosa 8710 = details: P. aeruginosa 8710
In short: as §1

E. coli 503-455 = test system: E. coli 503-455
In short: as §1

E. coli 387-1 = test system: E. coli 387-1
In short: as §1

E. coli 4 = test system: E. coli 4
In short: as §1

S. typhi P58A = test system: S. typhi P58A
In short: as §1

C. freundii CDC6 = test system: C. freundii CDC6
In short: as §1

K. pneumoniae 35 = test system: K. pneumoniae 35
In short: as §1

E. cloacae 6951 = test system: E. cloacae 6951
In short: as §1

E. coli 5152 = test system: E. coli 5152
In short: as §1

E. coli 48 = test system: E. coli 48
In short: as §1

P. aeruginosa 503-56 = test system: P. aeruginosa 503-56
In short: as §1

K. pneumoniae 503-964 = details: K. pneumoniae 503-964
In short: as §1

P. aeruginosa Stone 130 = test system: P. aeruginosa Stone 130
In short: as §1

C. diversus CDC 1663-72 = test system: C. diversus CDC 1663-72
In short: as §1

E. coli R-563 = test system: E. coli R-563
In short: as §1

S. pneumoniae 6301 = test system: S. pneumoniae 6301
In short: as §1

S. pneumoniae 6302 = test system: S. pneumoniae 6302
In short: as §1

P. aeruginosa 5700 = test system: P. aeruginosa 5700
In short: as §1

[1] = Serratia marcescens, S1, S. marcescens S1, read-out: MIC
[2] = Pseudomonas aeruginosa, read-out: MIC
[3] = Streptococcus pyogenes, 503782, read-out: MIC
[4] = Enterococcus faecalis, read-out: MIC
[5] = Escherichia coli, 503455, E. coli 503-455, read-out: MIC
[6] = Escherichia coli, 3871, E. coli 387-1, read-out: MIC
[7] = Escherichia coli, 4, E. coli 4, read-out: MIC
[8] = Citrobacter freundii, CDC6, C. freundii CDC6, read-out: MIC
[9] = Enterobacter cloacae, 6951, E. cloacae 6951, read-out: MIC
[10] = Escherichia coli, 48, E. coli 48, read-out: MIC
[11] = Pseudomonas aeruginosa, 50356, P. aeruginosa 503-56, read-out: MIC
[12] = Klebsiella pneumoniae, 503964, read-out: MIC
[13] = Pseudomonas aeruginosa, STONE130, read-out: MIC
[14] = Escherichia coli, R563, E. coli R-563, read-out: MIC
[15] = Streptococcus pneumoniae, 6301, S. pneumoniae 6301, read-out: MIC
[16] = Streptococcus pneumoniae, 6302, S. pneumoniae 6302, read-out: MIC
[17] = Pseudomonas aeruginosa, 5700, P. aeruginosa 5700, read-out: MIC

Compound: CC1(C)S[C@@H]2[C@H](N=CN3CCCC(CCn4ccnc4)CC3)C(=O)N2[C@H]1C(=O)O.Cl.O (single isomer, unassigned) [D]
- MIC (S. marcescens S1; S. marcescens S1): 0.5 µg/mL
- MIC (P. aeruginosa B): 0.25 µg/mL
- MIC (S. pyogenes 503-782): > 128 µg/mL
- MIC (S. faecalis C1): > 128 µg/mL
- MIC (P. aeruginosa 8710): > 128 µg/mL
- MIC (E. coli 503-455; E. coli 503-455): 1 µg/mL
- MIC (E. coli 387-1; E. coli 387-1): 0.125 µg/mL
- MIC (E. coli 4; E. coli 4): 0.125 µg/mL
- MIC (S. typhi P58A): 0.125 µg/mL
- MIC (C. freundii CDC6; C. freundii CDC6): 0.25 µg/mL
- MIC (K. pneumoniae 35; K. pneumoniae 35): 0.25 µg/mL
- MIC (E. cloacae 6951; E. cloacae 6951): 16 µg/mL
- MIC (E. coli 5152; E. coli 5152): 16 µg/mL
- MIC (E. coli 48; E. coli 48): 0.125 µg/mL
- MIC (P. aeruginosa 503-56; P. aeruginosa 503-56): > 128 µg/mL
- MIC (K. pneumoniae 503-964): 0.25 µg/mL
- MIC (P. aeruginosa Stone 130): > 128 µg/mL
- MIC (C. diversus CDC 1663-72; C. diversus CDC 1663-72): 0.125 µg/mL
- MIC (E. coli R-563; E. coli R-563): 0.125 µg/mL
- MIC (S. pneumoniae 6301; S. pneumoniae 6301): 4 µg/mL
- MIC (S. pneumoniae 6302; S. pneumoniae 6302): 8 µg/mL
- MIC (P. aeruginosa 5700; P. aeruginosa 5700): 0.5 µg/mL

Compound: CCc1nc(C)cn1CCCC1CCN(C=N[C@@H]2C(=O)N3[C@@H]2SC(C)(C)[C@@H]3C(=O)O)CC1 [G, [2S-(2alpha,5alpha,6beta)]-6-[[[4-[3-(2-ethyl-4methyl-1H-imidazol-1-yl)propyl]piperidinyl]methylene]amino]-3,3-dimethyl-7-oxo-4-thia-1-azabicyclo[3.2.0]heptane-2-carboxylic acid hydrochloride]
- MIC (S. marcescens S1; [1]): 1 µg/mL
- MIC (P. aeruginosa B; [2]): 0.25 µg/mL
- MIC (S. pyogenes 503-782; [3]): 128 µg/mL
- MIC (S. faecalis C1; [4]): 128 µg/mL
- MIC (P. aeruginosa 8710; [2]): > 128 µg/mL
- MIC (E. coli 503-455; [5]): 4 µg/mL
- MIC (E. coli 387-1; [6]): 0.25 µg/mL
- MIC (E. coli 4; [7]): 0.25 µg/mL
- MIC (S. typhi P58A; Salmonella enterica, TYPHI): 0.25 µg/mL
- MIC (C. freundii CDC6; [8]): 0.25 µg/mL
- MIC (K. pneumoniae 35; Klebsiella pneumoniae, 35, K. pneumoniae 35): 0.5 µg/mL
- MIC (E. cloacae 6951; [9]): 16 µg/mL
- MIC (E. coli 5152; Escherichia coli, 5152): 16 µg/mL
- MIC (E. coli 48; [10]): 0.062 µg/mL
- MIC (P. aeruginosa 503-56; [11]): > 128 µg/mL
- MIC (K. pneumoniae 503-964; [12]): 0.062 µg/mL
- MIC (P. aeruginosa Stone 130; [13]): > 128 µg/mL
- MIC (C. diversus CDC 1663-72; Citrobacter koseri, CDC166372): 0.125 µg/mL
- MIC (E. coli R-563; [14]): 0.25 µg/mL
- MIC (S. pneumoniae 6301; [15]): 1 µg/mL
- MIC (S. pneumoniae 6302; [16]): 2 µg/mL
- MIC (P. aeruginosa 5700; [17]): 1 µg/mL

Compound: CC1(C)S[C@@H]2[C@H](N=CN3CCC(C4=NCCN4)CC3)C(=O)N2[C@H]1C(=O)O [L, [2S-(2alpha,5alpha,6beta)]-6-[[[4-(4,5-dihydro-1H-imidazol-2-yl)-1-piperidinyl]methylene]amino]-3,3-dimethyl-7-oxo-4-thia-1-azabicyclo[3.2.0]heptane-2-carboxylic acid hydrochloride]
- MIC (S. marcescens S1; [1]): 0.5 µg/mL
- MIC (P. aeruginosa B; [2]): 0.5 µg/mL
- MIC (S. pyogenes 503-782; [3]): 32 µg/mL
- MIC (S. faecalis C1; [4]): 32 µg/mL
- MIC (P. aeruginosa 8710; [2]): 128 µg/mL
- MIC (E. coli 503-455; [5]): 4 µg/mL
- MIC (E. coli 387-1; [6]): 0.25 µg/mL
- MIC (E. coli 4; [7]): 0.125 µg/mL
- MIC (S. typhi P58A; Salmonella enterica, TYPHI): 0.5 µg/mL
- MIC (C. freundii CDC6; [8]): 0.5 µg/mL
- MIC (K. pneumoniae 35; Klebsiella pneumoniae, K. pneumoniae 35, read-out: MIC): 2 µg/mL
- MIC (E. cloacae 6951; [9]): 8 µg/mL
- MIC (E. coli 5152; Escherichia coli, 5152, E. coli 5152, read-out: MIC): 32 µg/mL
- MIC (E. coli 48; [10]): 0.5 µg/mL
- MIC (P. aeruginosa 503-56; [11]): 64 µg/mL
- MIC (K. pneumoniae 503-964; [12]): 2 µg/mL
- MIC (P. aeruginosa Stone 130; [13]): > 128 µg/mL
- MIC (C. diversus CDC 1663-72; Citrobacter koseri, CDC166372, C. diversus CDC 1663-72, read-out: MIC): 0.5 µg/mL
- MIC (E. coli R-563; [14]): 0.25 µg/mL
- MIC (S. pneumoniae 6301; [15]): 0.5 µg/mL
- MIC (S. pneumoniae 6302; [16]): 1 µg/mL
- MIC (P. aeruginosa 5700; [17]): 2 µg/mL
